Like-named read-outs stand apart in the source and are kept apart here.

The source of these data is patent US6444681B1, “Methods and compositions for treating Raynaud's Phenomenon and scleroderma” (The Ohio State University Research Foundation, priority 2000, dated 2002).

For experiment [1], the system named is small dermal arteries/arterioles from healthy controls and SSc subjects. Description: α2C-AR blockade of UK 14,304 vasoconstriction in human dermal arteries from control and SSc subjects. The conditions noted are these: for Kb: Homo sapiens, topical, versus UK 14,304, read-out: calculated dissociation constant, −log Kb (converted). The class given is cell-based. Here is the method: Arterioles were dissected from the deep dermal plexus of the biopsies and any side branches tied. […] The arterioles were cannulated with glass micropipettes and placed in a microvessel chamber as previously describe. The arterioles were maintained in no-flow state at a constant transmural pressure (PTM)of 40 mmHg. The chamber was superfused with buffer solution (37° C., pH 7.4, gassed with 16% O2-5% CO2-balance N2) and placed on stage of an inverted microscope for continuous monitoring of internal diameter using a video camera and video dimension analyzer.
In order to determine the influence of α2C-AR blockade, paired arteries from each subject were used. […] In the other artery of each pair, increasing concentrations of the α2C-AR antagonist (MK 912) was administered before the response to UK 14,304 was determined.

In another experiment the target is T1, α-2A (Homo sapiens, UniProt P08913).
T1 sequence (P08913 1-465): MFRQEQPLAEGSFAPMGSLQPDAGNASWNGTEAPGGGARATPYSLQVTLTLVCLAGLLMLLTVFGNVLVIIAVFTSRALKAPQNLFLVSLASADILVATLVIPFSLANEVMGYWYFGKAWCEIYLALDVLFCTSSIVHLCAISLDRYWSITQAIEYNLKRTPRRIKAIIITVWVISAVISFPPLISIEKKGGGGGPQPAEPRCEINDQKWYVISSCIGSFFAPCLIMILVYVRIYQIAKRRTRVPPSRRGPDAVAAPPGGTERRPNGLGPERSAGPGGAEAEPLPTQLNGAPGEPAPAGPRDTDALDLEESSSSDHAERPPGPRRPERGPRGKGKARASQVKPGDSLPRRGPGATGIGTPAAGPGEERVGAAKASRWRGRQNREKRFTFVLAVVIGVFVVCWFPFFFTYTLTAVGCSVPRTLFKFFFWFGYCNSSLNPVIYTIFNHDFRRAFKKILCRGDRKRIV
The conditions noted are these: cited from earlier work.

Another experiment concerns the target T2, α-2C (Homo sapiens, UniProt P18825).
T2 sequence (P18825 1-462): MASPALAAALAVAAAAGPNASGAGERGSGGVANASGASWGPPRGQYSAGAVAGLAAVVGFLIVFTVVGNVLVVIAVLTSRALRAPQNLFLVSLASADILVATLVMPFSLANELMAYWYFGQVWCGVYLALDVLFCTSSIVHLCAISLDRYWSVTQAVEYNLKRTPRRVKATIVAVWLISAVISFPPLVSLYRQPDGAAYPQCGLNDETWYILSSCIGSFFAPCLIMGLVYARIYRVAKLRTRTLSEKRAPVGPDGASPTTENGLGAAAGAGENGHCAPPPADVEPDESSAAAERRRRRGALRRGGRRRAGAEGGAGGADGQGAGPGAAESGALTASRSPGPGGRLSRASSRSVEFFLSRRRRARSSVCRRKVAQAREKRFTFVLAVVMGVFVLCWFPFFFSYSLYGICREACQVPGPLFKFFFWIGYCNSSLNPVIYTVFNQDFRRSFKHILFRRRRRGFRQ
The conditions noted are these: cited from earlier work.

Broadly, the Kd is the equilibrium constant for the complex coming apart. For the compound `CN1CCC2(CCN3CCc4c(oc5ccccc45)C3C2)N(C)C1=O` (stereo not shown) [MK 912], the Kb is 1.23 pM in experiment [1] (SSc arteries) and 468 pM in experiment [1] (control arteries). For the same compound, the “effect on vasoconstrictor response to α2-AR stimulation” value in experiment [1] (SSc arteries, extremely low concentrations (e.g. 10^−11M)) was “reduced the vasoconstrictor response”. Also, the “concentration needed to inhibit responses to UK 14,304” value in experiment [1] (control arteries) is 10^−9 M. Also, in experiment [1] (control versus SSc arteries), the “concentration needed in control arteries relative to SSc arteries” value is 100 fold. Moreover, the Kd on α-2A is 1800 pM; on α-2C, 45 pM.
